Results reported in ChEMBL document CHEMBL5137067, “Spiro-naphthyridine Antagonists of the Melanocortin Receptor 4 for the Treatment of Cachexia Associated with Chronic Illness” (ACS Med Chem Lett, 2022).

Experiments:
Melanocortin receptor 4 [1] = target: T1, Melanocortin receptor 4 (Homo sapiens, UniProt P32245); assay: Antagonist activity at human MC4R expressed in CHO cells assessed as decrease in alpha-MSH induced cAMP level by measuring equilibrium binding constant preincubated for 30 mins followed by alpha-MSH addition measured after 30 mins by HTRF method; type: functional, cell-based; conditions: time 60.0 min
Melanocortin receptor 4 [2] = target: T1, Melanocortin receptor 4; assay: Displacement of [125I]-[Nle4-D-phe7]-alpha-MSH from to human MC4R expressed in CHO cells incubated for 2 hrs by liquid scintillation counting method; type: cell-based

T1 sequence (P32245 whole entry): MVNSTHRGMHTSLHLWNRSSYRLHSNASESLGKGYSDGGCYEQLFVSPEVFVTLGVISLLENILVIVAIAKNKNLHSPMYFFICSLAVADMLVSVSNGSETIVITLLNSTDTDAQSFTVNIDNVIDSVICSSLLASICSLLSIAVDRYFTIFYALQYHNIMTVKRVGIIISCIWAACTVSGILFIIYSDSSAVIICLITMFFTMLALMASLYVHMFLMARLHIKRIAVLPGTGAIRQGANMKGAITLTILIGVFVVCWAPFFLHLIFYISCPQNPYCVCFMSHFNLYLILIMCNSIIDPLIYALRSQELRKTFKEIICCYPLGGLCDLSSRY

| Kb (Melanocortin receptor 4 [1]; filed as antagonist) | Ki (Melanocortin receptor 4 [2]) | Kb (Melanocortin receptor 4 [1]) | Structure (SMILES) |
| --- | --- | --- | --- |
|  | > 200000 pM |  | Cc1nc2c(cc1-c1ncccn1)CC[C@@]1(CCN(C(=O)[C@H](C)c3ccc(OC(F)F)nc3)C1)N2 |
| 8500 pM |  |  | Cc1nc2c(cc1-c1ncccn1)CC[C@@]1(CCN(C(=O)[C@@H](C)c3ccc(OC(F)F)nc3)C1)N2 |
| 180 pM | 540 pM |  | Cc1nc2c(cc1-c1ncccn1)CC[C@@]1(CCN(C(=O)C(C)c3cc(OC(F)F)ncc3Cl)C1)N2 (single isomer, unassigned) |
|  | 82000 pM | > 96000 pM | Cc1nc2c(cc1-c1ncccn1)CC[C@@]1(CCN(C(=O)C(C)c3ccc(Cl)cc3Cl)C1)N2 (stereo partly drawn) |

Continued, compound first:

| Structure (SMILES) | Kb (Melanocortin receptor 4 [1]; filed as antagonist) | Ki (Melanocortin receptor 4 [2]) | Kb (Melanocortin receptor 4 [1]) |
| --- | --- | --- | --- |
| COc1cc([C@@H](C)C(=O)N2CC[C@]3(CCc4cc(-c5nnn(C)n5)c(C)nc4N3)C2)c(Cl)cn1 | 1200 pM |  |  |
| COc1cc(OC)cc([C@@H](C)C(=O)N2CCC3(CCc4cc(-c5cnn(C)c5)c(C)nc4N3)C2)c1 (single isomer, unassigned) | 400 pM |  |  |
| COc1cc([C@@H](C)C(=O)N2CC[C@@]3(CCc4cc(-c5nc6ccccn6n5)c(C)nc4N3)C2)c(Cl)cn1 | 70 pM | 280 pM |  |
| COc1cc([C@@H](C)C(=O)N2CC[C@@]3(CCc4cc(-c5nnn(C)n5)c(C)nc4N3)C2)c(Cl)cn1 | 49 pM |  |  |
| COc1cc([C@@H](C)C(=O)N2CC[C@@]3(CCc4cc(-c5nc(C(F)F)n(C)n5)c(C)nc4N3)C2)c(Cl)cn1 | 80 pM |  |  |
| Cc1nc2c(cc1-c1cnn(C)c1)CC[C@@]1(CCN(C(=O)C(C)c3ccc(OC(F)F)nc3)C1)N2 (stereo partly drawn) |  | 57000 pM |  |
